Source: ChEMBL document CHEMBL4020782, “Design, synthesis and biological evaluation of 4-piperazinyl-containing Chidamide derivatives as HDACs inhibitors” (Bioorg Med Chem Lett, 2017)
pIC50: −log10 of the molar value.

Assays:
Histone deacetylase 1 [1] = target: T1, Histone deacetylase 1 (Homo sapiens, UniProt Q13547); experiment: Inhibition of recombinant human HDAC1 using a fluorogenic substrate at 10 uM by fluorescence method
Histone deacetylase 1 [2] = target: T1, Histone deacetylase 1; experiment: Inhibition of recombinant human HDAC1 using a fluorogenic substrate at 1 uM by fluorescence method
MRC5 = experiment: Antiproliferative activity against human MRC5 cells after 48 to 72 hrs by MTT assay; assay type: cell-based
HCT-116 [3] = experiment: Antiproliferative activity against human HCT116 cells after 48 to 72 hrs by MTT assay; assay type: functional, cell-based
Histone deacetylase 1 [4] = target: T1, Histone deacetylase 1; experiment: Inhibition of recombinant human HDAC1 using a fluorogenic substrate by fluorescence method
A549 = experiment: Antiproliferative activity against human A549 cells after 48 to 72 hrs by MTT assay; assay type: functional, cell-based
PC-3 [5] = experiment: Antiproliferative activity against human PC3 cells after 48 to 72 hrs by MTT assay; assay type: functional, cell-based
K562 = experiment: Antiproliferative activity against human K562 cells after 48 to 72 hrs by MTT assay; assay type: functional, cell-based
[6] = target: Voltage-gated inwardly rectifying potassium channel KCNH2 (Homo sapiens, UniProt Q12809); experiment: Inhibition of recombinant human ERG expressed in HEK293 cells after 9 mins by patch clamp method
Sequence of Voltage-gated inwardly rectifying potassium channel KCNH2 (Q12809 whole entry): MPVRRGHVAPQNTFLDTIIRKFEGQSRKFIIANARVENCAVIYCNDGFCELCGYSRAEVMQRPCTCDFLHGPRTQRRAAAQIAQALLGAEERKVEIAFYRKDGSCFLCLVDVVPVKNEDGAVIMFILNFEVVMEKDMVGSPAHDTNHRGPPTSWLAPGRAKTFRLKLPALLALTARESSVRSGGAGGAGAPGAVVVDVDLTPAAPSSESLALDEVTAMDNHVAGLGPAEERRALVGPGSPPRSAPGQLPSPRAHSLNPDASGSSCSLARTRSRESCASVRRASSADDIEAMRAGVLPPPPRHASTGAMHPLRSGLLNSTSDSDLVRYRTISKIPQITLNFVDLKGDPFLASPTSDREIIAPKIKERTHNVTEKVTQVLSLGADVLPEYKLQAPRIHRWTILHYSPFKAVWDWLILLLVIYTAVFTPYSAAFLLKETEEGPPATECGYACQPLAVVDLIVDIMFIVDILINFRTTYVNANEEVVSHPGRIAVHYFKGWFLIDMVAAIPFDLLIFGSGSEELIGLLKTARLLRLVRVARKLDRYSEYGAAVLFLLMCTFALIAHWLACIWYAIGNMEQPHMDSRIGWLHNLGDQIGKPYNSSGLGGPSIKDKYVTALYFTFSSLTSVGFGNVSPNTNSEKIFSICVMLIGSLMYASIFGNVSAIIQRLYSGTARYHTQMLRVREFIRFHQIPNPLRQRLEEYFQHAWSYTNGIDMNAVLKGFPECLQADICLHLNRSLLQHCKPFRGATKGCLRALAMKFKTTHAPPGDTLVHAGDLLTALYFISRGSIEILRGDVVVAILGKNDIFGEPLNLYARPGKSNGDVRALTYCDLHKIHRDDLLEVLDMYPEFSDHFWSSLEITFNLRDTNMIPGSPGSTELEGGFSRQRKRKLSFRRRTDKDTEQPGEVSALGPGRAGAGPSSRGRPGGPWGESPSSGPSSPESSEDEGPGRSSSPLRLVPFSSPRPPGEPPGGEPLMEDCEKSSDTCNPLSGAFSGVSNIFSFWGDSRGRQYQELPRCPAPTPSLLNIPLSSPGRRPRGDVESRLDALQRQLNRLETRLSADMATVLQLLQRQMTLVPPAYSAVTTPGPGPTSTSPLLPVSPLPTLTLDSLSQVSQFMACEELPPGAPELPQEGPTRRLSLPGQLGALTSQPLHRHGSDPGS

[7] = Clearance in Sprague-Dawley rat at 2 mg/kg, iv administered as single dose by HPLC-MS method; assay type: ADME, organism-based; conditions: in vivo
[8] = Volume of distribution at steady state in Sprague-Dawley rat at 2 mg/kg, iv administered as single dose by HPLC-MS method; assay type: ADME, organism-based; conditions: in vivo, read-out: Vdss
Mus musculus [9] = experiment: Toxicity in mouse xenografted with HCT116 cells assessed as weight loss at 50 mg/kg, po daily for 21 days; assay type: organism-based; conditions: in vivo, 504 h
HCT-116 [10] = experiment: Antitumor activity against human HCT116 cells xenografted in mouse assessed as tumor growth inhibition at 50 mg/kg, po daily for 21 days; assay type: functional; conditions: HCT-116, po, 504 h, read-out: TGI
Mus musculus [11] = experiment: Toxicity in mouse xenografted with HCT116 cells assessed as weight loss at 25 mg/kg, po daily for 21 days; assay type: organism-based; conditions: in vivo, 504 h
HCT-116 [12] = experiment: Antitumor activity against human HCT116 cells xenografted in po dosed mouse assessed as tumor growth inhibition administered daily for 21 days; assay type: functional, organism-based
[13] = Cmax in Sprague-Dawley rat at 10 mg/kg, po administered as single dose by HPLC-MS method; assay type: ADME, organism-based; design: dose 10 mg/kg, route oral; conditions: in vivo
HCT-116 [14] = experiment: Antitumor activity against human HCT116 cells xenografted in mouse assessed as tumor growth inhibition at 100 mg/kg, po daily for 21 days; assay type: functional; conditions: HCT-116, po, 504 h, read-out: TGI
[15] = Oral bioavailability in Sprague-Dawley rat at 10 mg/kg administered as single dose by HPLC-MS method; assay type: ADME, organism-based; conditions: in vivo
HCT-116 [16] = experiment: Antitumor activity against human HCT116 cells xenografted in mouse assessed as tumor growth inhibition at 25 mg/kg, po daily for 21 days; assay type: functional; conditions: HCT-116, po, 504 h, read-out: TGI
[17] = Tmax in Sprague-Dawley rat at 10 mg/kg, po administered as single dose by HPLC-MS method; assay type: ADME, organism-based; conditions: in vivo
[18] = AUC in Sprague-Dawley rat at 10 mg/kg, po administered as single dose by HPLC-MS method; assay type: ADME, organism-based; conditions: in vivo
[19] = Terminal half life in Sprague-Dawley rat at 2 mg/kg, iv administered as single dose by HPLC-MS method; assay type: ADME, organism-based; conditions: in vivo, read-out: beta t1/2 (converted)
Mus musculus [20] = experiment: Toxicity in mouse xenografted with HCT116 cells assessed as weight loss at 100 mg/kg, po daily measured for 12 days; assay type: organism-based; conditions: in vivo, 288 h
PC-3 [21] = experiment: Antitumor activity against human PC3 cells xenografted in nude mouse assessed as tumor growth inhibition at 100 mg/kg, ig administered 7 days per week for 3 weeks; assay type: functional; conditions: PC-3, po, read-out: TGI
Histone deacetylase 1 [22] = target: T1, Histone deacetylase 1; experiment: Inhibition of recombinant human HDAC1 expressed in Baculovirus insect cell expression system using [3H]-metabolically labeled acetylated histone substrate after 30 mins by scintillation counting

T1 sequence (Q13547 whole entry): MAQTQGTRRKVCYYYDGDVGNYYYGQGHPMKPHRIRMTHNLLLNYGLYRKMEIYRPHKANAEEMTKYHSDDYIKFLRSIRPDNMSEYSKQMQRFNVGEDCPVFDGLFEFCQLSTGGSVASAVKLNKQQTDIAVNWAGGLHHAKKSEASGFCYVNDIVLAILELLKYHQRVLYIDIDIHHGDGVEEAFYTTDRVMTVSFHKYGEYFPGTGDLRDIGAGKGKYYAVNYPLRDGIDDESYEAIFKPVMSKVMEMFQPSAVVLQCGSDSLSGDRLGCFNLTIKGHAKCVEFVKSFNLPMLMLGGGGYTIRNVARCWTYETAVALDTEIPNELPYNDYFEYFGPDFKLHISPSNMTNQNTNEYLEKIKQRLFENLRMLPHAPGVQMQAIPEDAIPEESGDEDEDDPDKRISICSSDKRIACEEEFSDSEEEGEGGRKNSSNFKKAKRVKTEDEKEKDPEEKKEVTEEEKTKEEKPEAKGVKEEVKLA

COc1cc(/C=C/C(=O)N2CCN(c3ccc(C(=O)Nc4ccccc4N)cc3)CC2)cc(OC)c1OC
inhibition (Histone deacetylase 1 [1]): 60.5% | inhibition (Histone deacetylase 1 [2]): 21.8%

Nc1cc(F)ccc1NC(=O)c1ccc(N2CCN(C(=O)/C=C/c3cccnc3)CC2)cc1
inhibition (Histone deacetylase 1 [1]): 19.2% | inhibition (Histone deacetylase 1 [2]): 4.71%

Nc1cc(F)ccc1NC(=O)c1ccc(N2CCN(C(=O)/C=C/c3ccc(F)cc3)CC2)cc1
inhibition (Histone deacetylase 1 [1]): 58.8% | inhibition (Histone deacetylase 1 [2]): 36%

Nc1ccccc1NC(=O)c1ccc(N2CCN(C(=O)/C=C/c3ccc(F)cc3)CC2)cc1
pIC50 (MRC5): < 4.52 | inhibition (Histone deacetylase 1 [1]): 79% | pIC50 (HCT-116 [3]): 5.70 | inhibition (Histone deacetylase 1 [2]): 52% | pIC50 (Histone deacetylase 1 [4]): 6.01 | pIC50 (A549): 6.09 | pIC50 (PC-3 [5]): 5.67 | pIC50 (K562): 5.96

COc1ccc(/C=C/C(=O)N2CCN(c3ccc(C(=O)Nc4ccccc4N)cc3)CC2)cc1OC
inhibition (Histone deacetylase 1 [1]): 79.2% | inhibition (Histone deacetylase 1 [2]): 46.5%

Nc1ccccc1NC(=O)c1ccc(N2CCN(C(=O)/C=C/c3ccccc3)CC2)cc1
inhibition (Histone deacetylase 1 [1]): 66.8% | inhibition (Histone deacetylase 1 [2]): 34.3%

COc1ccc(/C=C/C(=O)N2CCN(c3ccc(C(=O)Nc4ccccc4N)cc3)CC2)cc1
pIC50 (MRC5): < 4.52 | inhibition (Histone deacetylase 1 [1]): 87.8% | pIC50 (HCT-116 [3]): 6.12 | inhibition (Histone deacetylase 1 [2]): 50.2% | pIC50 (Histone deacetylase 1 [4]): 6.04 | pIC50 (A549): 6.28 | pIC50 (PC-3 [5]): 5.06 | pIC50 (K562): 5.53 | pIC50 [6]: 4.60

Cc1ccc(/C=C/C(=O)N2CCN(c3ccc(C(=O)Nc4ccccc4N)cc3)CC2)cc1
pIC50 (MRC5): < 4.52 | inhibition (Histone deacetylase 1 [1]): 94.2% | pIC50 (HCT-116 [3]): 7.16 | clearance [7]: 7.5 mL/min/kg | Vd [8]: 0.11 L/kg | Activity (Mus musculus [9]): 11.3% | inhibition (Histone deacetylase 1 [2]): 56.3% | inhibition in vivo at 50 mg/kg (HCT-116 [10]): 55.1% | Activity (Mus musculus [11]): < 5% | pIC50 (Histone deacetylase 1 [4]): 6.10 | pIC50 (A549): 6.87 | pIC50 (PC-3 [5]): 5.40 | TGI (HCT-116 [12]): Dose-dependent effect | pIC50 (K562): 5.31 | Cmax [13]: 2510 ng/mL | inhibition in vivo at 100 mg/kg (HCT-116 [14]): 76.3% | bioavailability [15]: 36.3% | inhibition in vivo at 25 mg/kg (HCT-116 [16]): 42.4% | pIC50 [6]: 4.57 | Tmax [17]: 25.8 min | AUC [18]: 8910 ng·h/mL | half-life [19]: 64.2 min | Activity (Mus musculus [20]): 19.2%

Cc1ccc(/C=C/C(=O)N2CCN(c3ccc(C(=O)Nc4ccc(F)cc4N)cc3)CC2)cc1
inhibition (Histone deacetylase 1 [1]): 64.3% | inhibition (Histone deacetylase 1 [2]): 17.4%

Nc1ccccc1NC(=O)c1ccc(N2CCN(C(=O)/C=C/c3cccnc3)CC2)cc1
inhibition (Histone deacetylase 1 [1]): 53.8% | inhibition (Histone deacetylase 1 [2]): 18.1%

COc1ccc(/C=C/C(=O)NCc2ccc(C(=O)Nc3ccncc3N)cc2)cc1
inhibition in vivo at 100 mg/kg (PC-3 [21]): 39% | pIC50 (Histone deacetylase 1 [22]): 5.48

Nc1ccc(F)cc1NC(=O)c1ccc(CNC(=O)/C=C/c2cccnc2)cc1
pIC50 (MRC5): < 4.52 | inhibition (Histone deacetylase 1 [1]): 81.3% | pIC50 (HCT-116 [3]): 6.69 | inhibition (Histone deacetylase 1 [2]): 55.1% | pIC50 (A549): 6.18 | pIC50 (PC-3 [5]): 5.68 | pIC50 (K562): 6.01

Nc1ccccc1NC(=O)c1ccc(N2CCN(C(=O)/C=C/c3ccc4c(c3)OCO4)CC2)cc1
inhibition (Histone deacetylase 1 [1]): 75.5% | inhibition (Histone deacetylase 1 [2]): 49.6%

COc1cccc(/C=C/C(=O)N2CCN(c3ccc(C(=O)Nc4ccccc4N)cc3)CC2)c1
inhibition (Histone deacetylase 1 [1]): 66.9% | inhibition (Histone deacetylase 1 [2]): 45.3%

Nc1cc(F)ccc1NC(=O)c1ccc(N2CCN(C(=O)/C=C/c3ccc4c(c3)OCO4)CC2)cc1
inhibition (Histone deacetylase 1 [1]): 53.4% | inhibition (Histone deacetylase 1 [2]): 18%
